How the values were obtained:
Format in all cases: organism-based, Ehrlich
Design in all cases: route oral
Mus musculus [1] = assay: Toxicity in Swiss albino mouse bearing mouse EAC cells assessed as mean survival time at 50 to 250 mg/kg/day, po; conditions: in vivo
Mus musculus [2] = assay: Toxicity in Swiss albino mouse bearing mouse EAC cells assessed as hematocrit level at 50 to 250 mg/kg/day, po after 14 days postimplantation; conditions: in vivo, 336 h
Mus musculus [3] = assay: Toxicity in Swiss albino mouse bearing mouse EAC cells assessed as increase in body weight at 50 to 250 mg/kg/day, po; conditions: in vivo
Mus musculus [4] = assay: Toxicity in Swiss albino mouse bearing mouse EAC cells assessed as WBC count at 50 to 250 mg/kg/day, po after 14 days postimplantation; conditions: in vivo, 336 h
Mus musculus [5] = assay: Toxicity in Swiss albino mouse bearing mouse EAC cells assessed as hemoglobin level at 50 to 250 mg/kg/day, po after 14 days postimplantation; conditions: in vivo, 336 h

| SMILES | MST (Mus musculus [1]) [days] | Activity (Mus musculus [2]) [%] | Activity (Mus musculus [3]) | Activity (Mus musculus [4]) | Activity (Mus musculus [5]) [g/dL] |
| --- | --- | --- | --- | --- | --- |
| Nc1nn2c(c1/N=N/c1ccc(/N=N/c3ccccc3)cc1)NC(=O)CC2 | 17.1 | 43 | Toxic | 12.8 | 10.9 |
| Nc1n[nH]c(/N=N/c2c(O)ccc3ccccc23)c1/N=N/c1ccc(/N=N/c2ccccc2)cc1 | 17.8 | 43.7 | Toxic | 11.5 | 10.5 |
| O=c1[nH]cc(F)c(=O)[nH]1 [FLUOROURACIL] | 16.7 | 42.3 | Toxic | 13.8 | 10 |
